Experimental data taken from patent US8623400B2, “Drug-carrying contact lens and method for fabricating the same” (National Chiao Tung University, priority 2011, dated 2014).

Experiment: Drug-release test of drug-carrying contact lenses
Type: physicochemical
From the text: The drug-release tests are respectively performed on the first encapsulation-type drug-carrying contact lens and the drug-soaking type contact lens of the present invention to understand the drug-release thereof.
In one embodiment, the encapsulation-type drug-carrying contact lens adopts a hydrophobic antibiotic—Azithromycin, which is an oral azalide group antibiotic that is a subgroup of macrolides, and which is a broad-spectrum antibiotic effective to Gram-positive bacteria, Gram-negative bacteria, anaerobic bacteria, Chlamydia, helicoids, etc. […] Such a phenomenon may be attributed to the fact: the higher the temperature, the higher the oscillation frequency of the drug molecules, and the greater the quantity of the drug molecules diffusing out. In the present invention, the drug-release amount can be quantitively controlled according to the application environment. Therefore, the present invention has a potential to realize a customized drug-carrying contact lens.
In one embodiment, the drug-soaking type drug-carrying contact lens adopts Vitamin B12, which is a hydrophilic drug and effective to pernicious anaemia, and which is a red crystalline powder likely to absorb humidity, easy to dissolve in water and alcohol, and slightly unstable in the environment of light, strong acid, and base. […] Such a phenomenon is attributed to the fact that the greater the concentration difference, the higher the driving force of drug molecule diffusion.

| Compound | release quantity of Azithromycin with respect to temperature (encapsulation-type drug-carrying contact lens, FIG. 6) | release of Vitamin B12 versus drug-carrying contact lens free of drug carriers (drug-soaking type drug-carrying contact lens containing the drug carriers, FIG. 7(a)) | drug-release rate with respect to drug concentration (drug-soaking type drug-carrying contact lens, different concentrations of Vitamin B12, FIG. 7(b)) |
| --- | --- | --- | --- |
| CC[C@H]1OC(=O)[C@H](C)[C@@H](O[C@H]2C[C@@](C)(OC)[C@@H](O)[C@H](C)O2)[C@H](C)[C@@H](O[C@@H]2O[C@H](C)C[C@H](N(C)C)[C@H]2O)[C@](C)(O)C[C@@H](C)CN(C)[C@H](C)[C@@H](O)[C@]1(C)O [Azithromycin] | increases with the temperature |  |  |
| Vitamin B12 |  | more slowly | increases with the concentration of the drug molecules |
